Biological target: T1, human mPGES-1 (Homo sapiens, UniProt O14684)
T1 sequence (O14684 1-152): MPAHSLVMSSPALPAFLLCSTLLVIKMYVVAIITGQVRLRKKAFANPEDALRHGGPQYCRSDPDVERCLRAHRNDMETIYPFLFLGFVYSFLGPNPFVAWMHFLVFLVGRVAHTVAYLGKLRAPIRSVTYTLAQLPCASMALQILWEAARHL
Test: Microsomal prostaglandin E synthase biochemical assay
Conditions: microsome preparation containing human mPGES-1; PGH2 10.8 μM, GSH 2.5 mM, pH 6.8; PGE2 by HTRF; average of at least n=2
Method: Compounds were tested as inhibitors of microsomal prostaglandin E synthase activity in microsomal prostaglandin E synthase assays and whole cell assays. These assays measure prostaglandin E2 (PGE2) synthesis which is taken as a measure of prostaglandin E synthase activity. Microsomal prostaglandin E synthase biochemical assays used microsomal prostaglandin E synthase-1 in microsomal preparations. The source of the microsomes can be for example interleukin-1β-stimulated human A549 cells (which express human mPGES-1) or Sf9 cells transfected with plasmids encoding human mPGES-1 cDNA. The whole blood assay [described by Patrignani, P. et al., Journal of Pharmacology and Experimental Therapeutics, 1994, vol. 271, pp 1705-1712] was used as the whole cell assay for testing the compounds. Whole blood provides a protein and cell rich milieu for the study of biochemical efficacy of anti-inflammatory compounds such as prostaglandin synthase inhibitors. To study the inhibitory activities of these compounds, human blood was stimulated with lipopolysaccharide (LPS) for typically 16 hours to induce mPGES-1 expression, after which the concentration of produced PGE2 was measured by competitive-immuno assay (homogeneous time-resolved fluorescence, HTRF) as read out for effectiveness against mPGES-1-dependent PGE2 production.
Microsomal Prostaglandin E Synthase Biochemical Assay
A solution of test compound was added to a diluted microsome preparation containing human mPGES-1 and pre-incubated for 15 minutes in potassium phosphate buffer pH 6.8 with cofactor glutathione (GSH). Corresponding solutions without test compound were used as positive controls, and corresponding solutions without test compound and without microsomes were used as negative controls. The enzymatic reaction was then started by addition of the substrate PGH2 in an organic solution (dry acetonitrile).
The typical reaction conditions of the enzymatic reaction were thus: Test compound: ranging from 60 μM to 0.002 μM, or zero in positive and negative controls; potassium phosphate buffer pH 6.8: 50 mM; GSH: 2.5 mM; mPGES-1-containing microsomes: 2 μg/mL (sample and positive controls) or 0 μg/mL (negative control); PGH2: 10.8 μM; Acetonitrile: 7.7% (v/v); DMSO: 0.6% (v/v). The reaction was stopped after one minute by adding an acidic solution (pH 1.9) of ferric chloride and citrate (final concentrations 7 mM and 47 mM respectively), by which the PGH2 was sequestered (the PGH2 is reduced to mainly 12-hydroxy heptadecatrineoic acid (12-HHT) which is not detected by the subsequent PGE2 detection step). The resulting solution was then pH neutralized by addition of potassium phosphate buffer, prior to diluting an aliquot of the resulting solution in a weak potassium phosphate buffer (50 mM, pH 6.8) containing 0.2% BSA (w/v). [Adapted from Jacobsson et al., Proc. Natl. Acad. Sci. USA, 1999, vol. 96, pp. 7220-7225]The PGE2 formed was quantified by use of a commercial HTRF based kit (catalogue #62PG2PEC or #62P2APEC from Cisbio International). 100% activity was defined as the PGE2 production in positive controls subtracted by the PGE2 production in the negative controls. IC50 values were then determined using standard procedures.
The potency is expressed as IC50 and the value indicated is an average of at least n=2.

IC50 [nM] | Compound
130 | NS(=O)(=O)c1ccccc1NS(=O)(=O)CCc1ccc(-c2cc3ccccc3o2)cc1 [Example 1, 2-[2-(4-Benzofuran-2-ylphenyl)ethylsulfonylamino]benzenesulfonamide]
270 | NS(=O)(=O)c1ccccc1NS(=O)(=O)CCc1ccc(C2Cc3ccccc3O2)cc1 (stereo not drawn) [Example 2, 2-[2-[4-(2,3-Dihydrobenzofuran-2-yl)phenyl]ethylsulfonylamino]benzenesulfonamide]
140 | NS(=O)(=O)c1ccccc1NS(=O)(=O)/C=C/c1ccc(-c2cc3ccccc3o2)cc1 [Example 3, 2-[[(E)-2-(4-Benzofuran-2-ylphenyl)ethenyl]sulfonylamino]benzenesulfonamide]
79 | NS(=O)(=O)c1cc(F)ccc1NS(=O)(=O)/C=C/c1ccc(-c2cc3ccccc3o2)cc1 [Example 4, 2-[[(E)-2-(4-Benzofuran-2-ylphenyl)ethenyl]sulfonylamino]-5-fluoro-benzenesulfonamide]
40 | NS(=O)(=O)c1ccc(F)cc1NS(=O)(=O)/C=C/c1ccc(-c2cc3ccccc3o2)cc1 [Example 5, 2-[[(E)-2-(4-Benzofuran-2-ylphenyl)ethenyl]sulfonylamino]-4-fluoro-benzenesulfonamide]
74 | NS(=O)(=O)c1c(F)cccc1NS(=O)(=O)/C=C/c1ccc(-c2cc3ccccc3o2)cc1 [Example 6, 2-[[(E)-2-(4-Benzofuran-2-ylphenyl)ethenyl]sulfonylamino]-6-fluoro-benzenesulfonamide]
280 | CC(Cc1ccc(Cl)cc1)S(=O)(=O)Nc1ccccc1S(N)(=O)=O (stereo not drawn) [Example 7, 2-[1-(4-Chlorophenyl)propan-2-ylsulfonylamino]benzenesulfonamide]
2200 | CC(Cc1ccccc1)S(=O)(=O)Nc1ccccc1S(N)(=O)=O (stereo not drawn) [Example 8, 2-(1-Phenylpropan-2-ylsulfonylamino)benzenesulfonamide]
610 | C/C(=C\c1ccc(Cl)cc1)S(=O)(=O)Nc1ccccc1S(N)(=O)=O [Example 9, 2-[[(E)-1-(4-Chlorophenyl)prop-1-en-2-yl]sulfonylamino]benzenesulfonamide]
450 | CC(Cc1ccc(Cl)cc1)S(=O)(=O)Nc1cc(F)ccc1S(N)(=O)=O (stereo not drawn) [Example 10, 2-[1-(4-Chlorophenyl)propan-2-ylsulfonylamino]-4-fluoro-benzenesulfonamide]
590 | C/C(=C\c1ccc(Cl)cc1)S(=O)(=O)Nc1cc(F)ccc1S(N)(=O)=O [Example 11, 2-[[(E)-1-(4-chlorophenyl)prop-1-en-2-yl]sulfonylamino]-4-fluoro-benzenesulfonamide]
1000 | C/C(=C\c1ccc(Cl)cc1)S(=O)(=O)Nc1ccc(F)cc1S(N)(=O)=O [Example 12, 2-[[(E)-1-(4-Chlorophenyl)prop-1-en-2-yl]sulfonylamino]-5-fluoro-benzenesulfonamide]
520 | C/C(=C\c1ccc(Cl)cc1)S(=O)(=O)Nc1cccc(F)c1S(N)(=O)=O [Example 13, 2-[[(E)-1-(4-Chlorophenyl)prop-1-en-2-yl]sulfonylamino]-6-fluoro-benzenesulfonamide]
3100 | C/C(=C\c1ccc(Cl)cc1)S(=O)(=O)Nc1c(F)cccc1S(N)(=O)=O [Example 14, 2-[[(E)-1-(4-Chlorophenyl)prop-1-en-2-yl]sulfonylamino]-3-fluoro-benzenesulfonamide]
7600 | C/C(=C\c1ccc(Cl)cc1)S(=O)(=O)Nc1ccc(C)cc1S(N)(=O)=O [Example 15, 2-[[(E)-1-(4-Chlorophenyl)prop-1-en-2-yl]sulfonylamino]-5-methyl-benzenesulfonamide]
190 | NS(=O)(=O)c1ccccc1NS(=O)(=O)CCc1ccc(-c2ccco2)cc1 [Example 16, 2-[2-[4-(2-Furyl)phenyl]ethylsulfonylamino]benzenesulfonamide]
5300 | NS(=O)(=O)c1ccccc1NS(=O)(=O)CCc1ccc(C2CCCO2)cc1 (stereo not drawn) [Example 17, 2-[2-[4-(Oxolan-2-yl)phenyl]ethylsulfonylamino]benzenesulfonamide]

IC50 [nM] | Compound
44 | NS(=O)(=O)c1ccccc1NS(=O)(=O)/C=C/c1ccc(-c2ccco2)cc1 [Example 18, 2-[[(E)-2-[4-(2-Furyl)phenyl]ethenyl]sulfonylamino]benzenesulfonamide]
1400 | NS(=O)(=O)c1ccccc1NS(=O)(=O)CCc1ccc(OC(F)F)cc1 [Example 19, 2-[2-[4-(Difluoromethoxy)phenyl]ethylsulfonylamino]benzenesulfonamide]
700 | NS(=O)(=O)c1ccccc1NS(=O)(=O)/C=C/c1ccc(OC(F)F)cc1 [Example 20, 2-[[(E)-2-[4-(Difluoromethoxy)phenyl]ethenyl]sulfonylamino]benzenesulfonamide]
320 | NS(=O)(=O)c1cc(F)ccc1NS(=O)(=O)CCc1ccc(Cl)cc1 [Example 21, 2-[2-(4-Chlorophenyl)ethylsulfonylamino]-5-fluoro-benzenesulfonamide]
430 | NS(=O)(=O)c1cc(F)ccc1NS(=O)(=O)/C=C/c1ccc(Cl)cc1 [Example 22, 2-[[(E)-2-(4-Chlorophenyl)ethenyl]sulfonylamino]-5-fluoro-benzenesulfonamide]
270 | NS(=O)(=O)c1ccc(F)cc1NS(=O)(=O)/C=C/c1ccc(Cl)c(Cl)c1 [Example 23, 2-[[(E)-2-(3,4-Dichlorophenyl)ethenyl]sulfonylamino]-4-fluoro-benzenesulfonamide]
300 | NS(=O)(=O)c1cc(F)ccc1NS(=O)(=O)/C=C/c1ccc(Cl)c(Cl)c1 [Example 24, 2-[[(E)-2-(3,4-Dichlorophenyl)ethenyl]sulfonylamino]-5-fluoro-benzenesulfonamide]
77 | NS(=O)(=O)c1c(F)cccc1NS(=O)(=O)/C=C/c1ccc(Cl)c(Cl)c1 [Example 25, 2-[[(E)-2-(3,4-Dichlorophenyl)ethenyl]sulfonylamino]-6-fluoro-benzenesulfonamide]
420 | COc1ccc(Br)cc1/C=C/S(=O)(=O)Nc1cc(F)ccc1S(N)(=O)=O [Example 26, 2-[[(E)-2-(5-Bromo-2-methoxy-phenyl)ethenyl]sulfonylamino]-4-fluoro-benzenesulfonamide]
270 | COc1ccc(Br)cc1/C=C/S(=O)(=O)Nc1ccc(F)cc1S(N)(=O)=O [Example 27, 2-[[(E)-2-(5-Bromo-2-methoxy-phenyl)ethenyl]sulfonylamino]-5-fluoro-benzenesulfonamide]
290 | COc1ccc(Br)cc1/C=C/S(=O)(=O)Nc1cccc(F)c1S(N)(=O)=O [Example 28, 2-[[(E)-2-(5-Bromo-2-methoxy-phenyl)ethenyl]sulfonylamino]-6-fluoro-benzenesulfonamide]
280 | COc1ccc(Br)cc1/C=C/S(=O)(=O)Nc1ccccc1S(N)(=O)=O [Example 29, 2-[[(E)-2-(5-Bromo-2-methoxy-phenyl)ethenyl]sulfonylamino]benzenesulfonamide]
5900 | N#Cc1ccc(/C=C/S(=O)(=O)Nc2cc(F)ccc2S(N)(=O)=O)cc1 [Example 30, 2-[[(E)-2-(4-Cyanophenyl)ethenyl]sulfonylamino]-4-fluoro-benzenesulfonamide]
5700 | N#Cc1ccc(/C=C/S(=O)(=O)Nc2ccc(F)cc2S(N)(=O)=O)cc1 [Example 31, 2-[[(E)-2-(4-Cyanophenyl)ethenyl]sulfonylamino]-5-fluoro-benzenesulfonamide]
5100 | N#Cc1ccc(/C=C/S(=O)(=O)Nc2cccc(F)c2S(N)(=O)=O)cc1 [Example 32, 2-[[(E)-2-(4-Cyanophenyl)ethenyl]sulfonylamino]-6-fluoro-benzenesulfonamide]
1100 | N#Cc1ccc(/C=C/S(=O)(=O)Nc2ccccc2S(N)(=O)=O)cc1 [Example 33, 2-[[(E)-2-(4-Cyanophenyl)ethenyl]sulfonylamino]benzenesulfonamide]

From patent US20090163586A1, “Bis-(Sulfonylamino) Derivatives in Therapy 205” (AstraZeneca AB, priority 2007, published 2009)
